A short description of series [1]: Body weight change ratio in MC38 transplanted model (Example 1). The class given is in vivo, mouse. The method, then:
(§1) An electronic balance for animals was used for body weight measurement. The body weight change ratio on the nth day (BWCn) was calculated from the body weight on the nth day (BWn) in accordance with the following equation.
(§2) An appropriate amount of water for injection described in the Japanese Pharmacopeia was added for adjusting hypromellose concentration to 0.5 w/v %, and the mixture was then stirred with a stirrer to completely dissolve hypromellose, to prepare a 0.5% aqueous hypromellose solution. Compound 1 was ground with an agate mortar, and then suspended to a predetermined concentration with the 0.5% aqueous hypromellose solution, and ultrasonic treatment was performed to obtain a homogeneous suspension. The suspension containing Compound 1 was orally administered once a day over 5 consecutive days at a dose of 10 mg/kg/day or 14 mg/kg/day, followed by cessation of administration for 2 days, and these processes were repeated three times.
(§3) The anti-mouse PD-1 antibody (anti-mPD-1 Ab) was prepared by diluting InVivoMab anti-mouse PD-1 (CD279) (Clone: RMP-1-14, Bio X cell Co.) to a predetermined concentration with Otsuka Normal Saline immediately before administration. On the first day of administration (day 1), the diluted product was intraperitoneally administered as the anti-mouse PD-1 antibody at a dose of 0.05 mg/body.

The subject of series [2] is mouse bowel cancer cell line MC38. As to the kind of experiment: Antitumor effect of Compound 1 and anti-mouse PD-L1 or anti-mouse CTLA-4 antibody in bowel cancer cell transplanted model (Example 3). The format is in vivo. Here is the method: (§4) Mouse bowel cancer cell line MC38 was obtained from Dr. Yoshihiro Hayakawa (University of Toyama, Toyama, Japan), and cultured in a RPMI1640 (Sigma-Aldrich) medium (culture solution) containing 10% fetal bovine serum (FBS). MC38 was subcultured at a ratio of 1:3 to 1:5 once or twice a week in an incubator with 5% CO2 at 37° C.
(§5) A cell suspension with a concentration of 2×10^6 cells/0.1 mL was transplanted subcutaneously in the vicinity of the right backmost rib bone of a 6-week-old C57BL/6JJcI mouse (CLEA Japan, Inc.).
(§6) The tumor was grown until reaching a tumor volume (TV) of 50 to 300 mm^3 after the transplantation. Degimatic Caliper was used for tumor diameter measurement. The major diameter and the minor diameter of the tumor were measured, and TV was calculated from the following equation.
(§7) By a stratified random allocation method using TV as an index, 6 animals were allocated to each group. The day when grouping (n=6) was performed was defined as Day 0.
(§8) The relative tumor volume (RTV) and the relative tumor volume change ratio (T/C) were calculated from TV.
as §2
The same procedure as described in Example 1 was carried out except that the anti-mouse PD-L1 antibody or the anti-CTLA-4 antibody was used instead of the anti-mouse PD-1 antibody. […]

Series [3] shares this test system. Put plainly: Antitumor effect of Compound 1 and anti-mouse PD-1 antibody in bowel cancer cell transplanted model (Example 1). The class given is in vivo. The note with it: for RTV Day 22 (mean ± SD): MC38 transplanted mice; for T/C (%): Day 22. The method, then:
as §4, §5, §6, §7, §8
RTV and T/C were calculated from the following equation.
as §2, §3

A short description of series [4]: Body weight change ratio in MC38 transplanted model (Example 3). The class given is in vivo, mouse. The note with it: Compound 1 14 mg/kg/day p.o. days 1-5, 8-12, 15-19. The method, then: as §1
The same procedure as described in Example 1 was carried out except that the anti-mouse PD-L1 antibody or the anti-CTLA-4 antibody was used instead of the anti-mouse PD-1 antibody.
The anti-mouse PD-L1 antibody (anti-mPD-L1 Ab) was prepared by diluting InVivoMab anti-mouse PD-L1 (B7-H1) (Clone: 10F.9G2, Bio X cell Co.) to a predetermined concentration with Otsuka Normal Saline immediately before administration. On the first day of administration (day 1), the diluted product was intraperitoneally administered using the anti-mouse PD-L1 antibody at a dose of 0.05 mg/body. The anti-mouse CTLA-4 antibody (anti-mCTLA-4 Ab) was prepared by diluting InVivoMab anti-mouse CTLA-4 (CD152) (Clone: 9H10, Bio X cell Co.) to a predetermined concentration with Otsuka Normal Saline immediately before administration. On the first day of administration (day 1), the diluted product was intraperitoneally administered using the anti-mouse CTLA-4 antibody at a dose of 0.05 mg/body.

Series [5] deals with tumor infiltrating leucocytes (CD8 positive cells, regulatory T-cells). As to the kind of experiment: Immunostimulatory action: flow cytometric analysis of tumor infiltrating lymphocytes in MC38 transplanted model (Example 2). The format is in vivo, mouse. Here is the method:
Mouse bowel cancer cell line MC38 was cultured using a RPMI1640 (Waco Pure Chemical Industries, Ltd.) medium containing 10% FBS. MC38 was subcultured at a ratio of 1:5 to 1:10 once or twice a week in an incubator with 5% CO2 at 37° C.
A cell suspension with a concentration of 2×10^6 cells/0.1 mL was transplanted subcutaneously in the vicinity of the right backmost rib bone of a 6-week-old C57BL/6NJCrI mouse (Charles River Laboratories Japan Inc.).
The tumor was grown until reaching a tumor volume (TV) of 110 to 360 mm^3 after the transplantation. Degimatic Caliper was used for tumor diameter measurement. The major diameter and the minor diameter of the tumor were measured, and TV was calculated from the following equation.
By a stratified random allocation method using TV as an index, 5 animals were allocated to each group. The day when grouping (n=5) was performed was defined as Day 1.
Agents prepared by the same method as described in Example 1 were used for administration. Anti-mouse PD-1 antibody (anti-mPD-1 Ab), CD279(PD-1)Monoclonal Antibody (RMP1-14), eBioscience (Thermo Fisher Scientific), was used as an anti-mouse PD-1 antibody, and intraperitoneally administered at a dose of 0.05 mg/body on the first day of administration (Day 1). Compound 1 was orally administered at a dose of 14 mg/kg/day once a day on Days 1-5 and 8-9.
For detecting expression of immunity-related factors, flow cytometric analysis was performed for immunological monitoring. On Day 10, the tumor was sampled, and tumor infiltrating lymphocytes were then prepared using Tumor Dissociation Kit, mouse (Miltenyi Biotec). Thereafter, the antibody was stained using FoxP3/Transcription Factor Staining Buffer Set (thermo Fisher Scientific), and analysis was then performed using Flow Cytometer FACSVerse (BD Bioscience). […]
(Flow cytometry measures light scatter and fluorescence of single cells or particles in a stream.)

[6] abbreviates: Compound 1 10 mg/kg/day p.o. days 1-5, 8-12, 15-19.
Where [7] appears, read: Compound 1 14 mg/kg/day p.o. days 1-5, 8-12, 15-19.
[8] abbreviates: Day 10, Compound 1 14 mg/kg/day p.o. Days 1-5 and 8-9, Dunnett test.

The structures appear in SMILES notation.

In the case of `CCc1cc(C(N)=O)ccc1-n1nc(C(C)C)c2c(-n3cnc(-c4cnn(C)c4)c3)ccnc21` [Compound 1, 3-ethyl-4-{3-isopropyl-4-(4-(1-methyl-1H-pyrazol-4-yl)-1H-imidazol-1-yl)-1H-pyrazolo[3,4-b]pyridin-1-yl}benzamide], the “BWC(%) Day 22 Mean” value in series [1] (setting [6]) came out at 13.5%; in series [1] (setting [7]) it was 12.8%; in series [4] it was 6.63%. Moreover, the “RTV on Day 22 as compared to the control group” value in series [2] (Aspin-Welch's t-test, Example 3) is reported as “significantly lower RTV”; in series [3] (Aspin-Welch's t-test, Example 1) it was “significantly lower RTV”. Moreover, the “RTV Day 22 (mean ± SE)” value in series [2] (Compound 1 14 mg/kg/day p.o. days 1-5, 8-12, 15-19, MC38 transplanted mice) worked out at 8.32 ± 0.51. Further, the “T/C (%)” value in series [2] (Day 22, Compound 1 14 mg/kg/day p.o. days 1-5, 8-12, 15-19) was found to be 49.7%; in series [3] (setting [6]), 41.7%; in series [3] (setting [7]), 29.4%. Besides, the “RTV Day 22 (mean ± SD)” value in series [3] (setting [6]) was 7.93 ± 1.29; in series [3] (setting [7]) it was 5.59 ± 0.92. In addition, the “ratio of CD8 positive cells in leucocytes (CD45 positive cells) as compared to the control group” value in series [5] (setting [8]) is listed as “significantly higher”. Besides, in series [5] (setting [8]), the “ratio of regulatory T-cells in T-cells as compared to the control group” value is given as “significantly lower”. In addition, the immunostimulatory activity result in series [5] (conclusion from Example 2) is recorded as “shows immunostimulatory activity”.

The values above are taken from patent publication US20250170108A1, “CHEMOTHERAPY FOR CANCER USING AZABICYCLO COMPOUND” (TAIHO PHARMACEUTICAL CO., LTD., priority 2017, published 2025).
